Laboratory results published in PMC8583781, “Identification and Functional Analysis of a Pseudo-Cysteine Protease from the Midgut Transcriptome of Sphenophorus levis” (International Journal of Molecular Sciences, 2021).

Target: T1, Sl-CathL-mutSC
T1 construct: ORF of Sl-CathL-CS (GenBank JZ136744.1) without signal peptide, C-terminal 6x His tag, expressed in P. pastoris KM71H
Assay: fluorogenic protease assay (AMC release), Ki by Morrison equation
Type: biochemical, Sphenophorus levis

## CC(C)C[C@H](NC(=O)[C@H]1O[C@@H]1C(=O)O)C(=O)NCCCCN=C(N)N [E-64]
  Ki: 38.5 ± 1.2 µM
